Measurements from article PMC11982498 (Redox Biology, 2025).

Columns and labels:
[1] = molecular target: BCL-2 gene promoter i-motif; test: SPR binding to BCL-2 promoter i-motif; settings: MES buffer pH 5.5, 25 °C
Procedure: SPR measurement was performed on a ProteOn XPR36 protein interaction array system (Bio-Rad Laboratories, Hercules, California, USA) using a Neutravidin-coated GLH sensor chip. BCL-2 i-motif binding analysis was performed following a published method without significant modification. For immobilization, 5′-biotin-labeled DNA oligomers at 800 nM annealed in 1 × MES buffer at pH 5.5 by heating at 95 °C for 5 min, were attached to a reptavidin-coated sensor chip. Compounds were prepared through serial dilution with flowing buffer (20 mM MES, 100 mM KCl, pH 5.5 for i-motif) in at least 6 concentrations, which were simultaneously injected at a flow rate of […] for a 120 s of association phase, followed by 250 s of dissociation phase at 25 °C. Langmuir model was used for fitting kinetic data, which was analyzed with ProteOn manager software. KD values were determined through equation KD = kd/ka. Compound A22 was used as a positive control, and other compounds were selected as candidates only if their KD values for binding to BCL-2 i-motif were similar to that of A22.

[2] = system: bio-BCL-2 (BCL-2 IM) (DNA, i motif) CAGCCCCGCTCCCGCCCCCTTCCTCCCGCGCCCGCCCCT; test: SPR; settings: K+ 100 mM; 20 mM MES, pH 5.5, 25 °C
Aβ1-42 [3] = molecular target: T1, Aβ1-42 (Homo sapiens, UniProt P05067); test: Thioflavine T fluorescence spectroscopy assay (time course to 96 h); assay type: biochemical; settings: 20 μM compound, Aβ1-42 incubated for 96 h
T1 construct: Aβ1-42 was purchased from Gill Biochemicals Ltd (Shanghai, China); purchased Gill Biochemicals Ltd (Shanghai, China)
T1 sequence (P05067 672-713 limits assumed): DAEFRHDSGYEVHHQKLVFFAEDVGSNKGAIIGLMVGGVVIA
Procedure: (§1) The Aβ1-42 solutions (100 μM) were co-incubated with B14 (20 μM) or Curcumin (20 μM) at 37 °C protected from light for 96 h. 30 μL of Aβ1-42 solution was taken at different time points (0 h, 10 h, 24 h, 48 h, 72 h, 96 h), mixed fully with 400 μL of ThT solution (15 μM), and incubated in the dark for 30 min. The fluorescence signal was recorded by using a Cary Eclipse fluorescence spectrophotometer (Varian, USA) with the following setting: excitation wavelength at 440 nm, emission wavelength at 480 nm, and slit width of 20 nm.
as §1, with “μM) and” for “μM) or”, “Aβ1-42 solutions were” for “Aβ1-42 solution was”, “by” for “by using”, “with” for “with the following setting:”

Aβ1-42 [4] = molecular target: T1, Aβ1-42; test: Dot blot of Aβ1-42 fibril aggregation; assay type: biochemical; settings: 20 μM compound, 24 h
Procedure: After incubation at 37 °C for 24 h, 10 μL aliquots of 20 μM Aβ1-42 reaction mixtures were spotted onto nitrocellulose membranes. Membranes were blocked for 2 h with 5 % non-fat milk in TBS. After washing, membranes were incubated with the anti-Aβ fibril antibody (1:1,000, CST, USA) dissolved in TBS containing 3 % bovine serum albumin (BSA, Beyotime, Jiangsu, China) and 0.01 % Tween-20 (Solarbio, Beijing, China), and developed using an alkaline-phosphatase anti-rabbit secondary antibody (1:5,000, Proteintech, China). The bands were then detected using an enhanced chemiluminescence (ECL) kit (Millipore, USA).
After incubation at 37 °C for 24h, 10 μL aliquots of 20 μM Aβ1-42 reactions were spotted onto nitrocellulose membranes. The membranes were blocked for 2 h with 5% non-fat milk in TBS. After washing, the membranes were incubated with the anti-Aβ fibril antibody (1:1000 dilution) dissolved in TBS containing 3% BSA and 0.01% Tween-20, and then developed using an alkaline-phosphatase antirabbit secondary antibody (1:5000 dilution). Invitrogen's Western Breeze Chemiluminescent kit was used to visualize the protein dots, and these dots were imaged using a FUJIFILM Luminescent Image Analyzer LAS-1000CH.

Aβ1-42 [5] = molecular target: T1, Aβ1-42; test: Congo red binding assay; assay type: biochemical; settings: 20 μM compound, 72 h
Procedure: (§2) A total of 30 μM Congo red (Aladdin, Shanghai, China) solution (20 mM potassium phosphate, 50 mM NaCl, pH 7.4) was prepared and filtered with a 0.45 μm filter. The Aβ1-42 solutions (30 μM) were co-incubated with B14 (20 μM), A22 (20 μM), or Curcumin (20 μM) at 37 °C protected from light for 72h. The Aβ1-42 solution was mixed with equal volume of Congo red solution, followed by incubation for 30 min. A spectral region from 400 nm to 650 nm was measured by using a UV–vis spectrophotometer (AoE, China).
as §2, with “red” for “red (Aladdin, Shanghai, China)”, “μM) and” for “μM), A22 (20 μM), or”, “solution and incubated” for “solution, followed by incubation”, “analyzed” for “measured”, “UV-vis” for “UV–vis”

| Compound | Kd [1] | KD [2] | other results |
| --- | --- | --- | --- |
| O=C(CCCN1CCOCC1)Nc1ccc2c(c1)c(=O)c1ccccc1n2-c1ccc2occc2c1 [Compound A11] | > 50 µM | > 50 µM |  |
| O=c1c2cc(NCCCN3CCOCC3)ccc2n(-c2ccc3occc3c2)c2ccc(NCCCN3CCOCC3)cc12 [Compound B5] | > 50 µM | > 50 µM |  |
| CN1CCN(CCC(=O)Nc2ccc3c(c2)c(=O)c2ccccc2n3-c2ccc3occc3c2)CC1 |  | > 50 µM |  |
| CN(C)CCNc1ccc2c(c1)c(=O)c1cc(NCCN(C)C)ccc1n2-c1ccc2occc2c1 [Compound B8] | > 50 µM | > 50 µM |  |
| CCN(CC)CCNc1ccc2c(c1)c(=O)c1cc(NCCN(CC)CC)ccc1n2-c1ccc2occc2c1 [Compound B9] | > 50 µM | > 50 µM |  |
| CN(C)CCC(=O)Nc1ccc2c(c1)c(=O)c1ccccc1n2-c1ccc2occc2c1 |  | > 50 µM |  |
| COc1cc(/C=C/C(=O)CC(=O)/C=C/c2ccc(O)c(OC)c2)ccc1O [Curcumin, reference compound] |  |  | decrease of ThT fluorescence intensity (Aβ1-42 [3]): 20.83 ± 1.68%; formation of Aβ fibers (dot blot) (Aβ1-42 [4]): relatively less significant effect compared with B14; absorbance of Congo red in the Aβ1-42 sample (Aβ1-42 [5]): some inhibitory effect, but much lower than B14 |
| CCN(CC)CCC(=O)Nc1ccc2c(c1)c(=O)c1ccccc1n2-c1ccc2occc2c1 |  | > 50 µM |  |
| O=c1c2cc(NCCN3CCOCC3)ccc2n(-c2ccc3occc3c2)c2ccc(NCCN3CCOCC3)cc12 [Compound B6] | > 50 µM | > 50 µM |  |
| CCN(CC)CCCNc1ccc2c(c1)c(=O)c1cc(NCCCN(CC)CC)ccc1n2-c1ccc2occc2c1 [Compound B1] | > 50 µM |  |  |
| CCN(CC)CCCNc1ccc2c(c1)c(=O)c1ccccc1n2-c1ccc2occc2c1 [Compound A1] | > 50 µM |  |  |
| O=C(CCN1CCCC1)Nc1ccc2c(c1)c(=O)c1cc(NC(=O)CCN3CCCC3)ccc1n2-c1ccc2occc2c1 [Compound B12] | > 50 µM | > 50 µM |  |
| CCN(CC)CCC(=O)Nc1ccc2c(c1)c(=O)c1cc(NC(=O)CCN(CC)CC)ccc1n2-c1ccc2occc2c1 [Compound B13] | > 50 µM | > 50 µM |  |
| CCN(CC)CCNc1ccc2c(c1)c(=O)c1ccccc1n2-c1ccc2occc2c1 [Compound A9] | 34.1 µM | 34.1 µM |  |
| O=c1c2cc(NCCN3CCNCC3)ccc2n(-c2ccc3occc3c2)c2ccc(NCCN3CCNCC3)cc12 [Compound B3] | > 50 µM | > 50 µM |  |
| O=c1c2ccccc2n(-c2ccc3occc3c2)c2ccc(NCCN3CCOCC3)cc12 [Compound A6] | > 50 µM | > 50 µM |  |
| CN(C)CCNc1ccc2c(c1)c(=O)c1ccccc1n2-c1ccc2occc2c1 [Compound A8] | > 50 µM | > 50 µM |  |
| CN1CCN(C=CC(=O)Nc2ccc3c(c2)c(=O)c2ccccc2n3-c2ccc3occc3c2)CC1 [Compound A15] | > 50 µM |  |  |

| Compound | Kd [1] | KD [2] | other results |
| --- | --- | --- | --- |
| O=C(CCN1CCOCC1)Nc1ccc2c(c1)c(=O)c1ccccc1n2-c1ccc2occc2c1 [Compound A16] | > 50 µM |  |  |
| O=c1c2ccccc2n(-c2ccc3occc3c2)c2ccc(NCCc3ccccn3)cc12 [Compound A10] | > 50 µM | > 50 µM |  |
| CC1CCN(CCC(=O)Nc2ccc3c(c2)c(=O)c2ccccc2n3-c2ccc3occc3c2)CC1 |  | > 50 µM |  |
| CN(C)C=CC(=O)Nc1ccc2c(c1)c(=O)c1ccccc1n2-c1ccc2occc2c1 [Compound A14] | > 50 µM |  |  |
| O=c1c2ccccc2n(-c2ccc3occc3c2)c2ccc(NCCN3CCNCC3)cc12 [Compound A3] | > 50 µM | > 50 µM |  |
| CN(C)CCCNc1ccc2c(c1)c(=O)c1cc(NCCCN(C)C)ccc1n2-c1ccc2occc2c1 [Compound B2] | > 50 µM | > 50 µM |  |
| O=c1c2ccccc2n(-c2ccc3occc3c2)c2ccc(NCCCN3CCOCC3)cc12 [Compound A5] | > 50 µM | > 50 µM |  |
| CN(C)CCCNc1ccc2c(c1)c(=O)c1ccccc1n2-c1ccc2occc2c1 [Compound A2] | > 50 µM | > 50 µM |  |
| CN1CCN(CCCNc2ccc3c(c2)c(=O)c2ccccc2n3-c2ccc3occc3c2)CC1 [Compound A4] | > 50 µM | > 50 µM |  |
| CN1CCN(CCCNc2ccc3c(c2)c(=O)c2cc(NCCCN4CCN(C)CC4)ccc2n3-c2ccc3occc3c2)CC1 |  | > 50 µM |  |
| O=c1c2cc(NCCc3ccccn3)ccc2n(-c2ccc3occc3c2)c2ccc(NCCc3ccccn3)cc12 [Compound B10] | > 50 µM | > 50 µM |  |
| CC1CCN(C=CC(=O)Nc2ccc3c(c2)c(=O)c2ccccc2n3-c2ccc3occc3c2)CC1 [Compound A12] | > 50 µM |  |  |
| CN1CCN(CCCNc2ccc3c(c2)C(=O)c2cc(NCCCN4CCN(C)CC4)ccc2C3c2ccc3occc3c2)CC1 [Compound B4] | > 50 µM |  |  |
| O=c1c2cc(NCCCN3CCCC3)ccc2n(-c2ccc3occc3c2)c2ccc(NCCCN3CCCC3)cc12 [Compound B7] | > 50 µM | > 50 µM |  |
| O=C(CCCN1CCOCC1)Nc1ccc2c(c1)c(=O)c1cc(NC(=O)CCCN3CCOCC3)ccc1n2-c1ccc2occc2c1 [Compound B11] | > 50 µM | > 50 µM |  |
| O=c1c2ccccc2n(-c2ccc3occc3c2)c2ccc(NCCCN3CCCC3)cc12 [Compound A7] | > 50 µM | > 50 µM |  |
| CCN(C=CC(=O)Nc1ccc2c(c1)c(=O)c1ccccc1n2-c1ccc2occc2c1)CC [Compound A13] | > 50 µM |  |  |
